# Measured values as given in publication doi:10.1101/2022.09.13.507756v1 (biorxiv, 2022).
# Where two headings read alike, the source gives them in different places.
# How the values were obtained:
# AncCDT-5 [1] = details: 50 mM Na2HPO4, 25 °C, 100 nM enzyme
# AncCDT-5 [2] = details: 50 mM Na2HPO4, 25 °C, 100 nM enzyme; prephenate dehydratase reaction
smiles,measurement,setting,value
O=C(O)C(=O)CC1(C(=O)O)C=CC(O)C=C1 (centres unmarked) [prephenate],Km,AncCDT-5 [1],178 ± 27.1 µM
same,Km,AncCDT-5 [2],169 ± 22.9 µM
